Results as given in paper PMC6248931 (Science Advances, 2018).

Tests used:
HIV [1] = conditions: cited from earlier work
influenza virus = conditions: cited from earlier work
HIV HR2 peptide = HIV HR2 peptide (Human immunodeficiency virus type 1, UniProt P03377); format: binding
HIV HR1-HR2 interaction = format: binding
HIV-1 pseudovirions = format: cell-based; conditions: 1 μM
HIV [2] = conditions: human, in vivo; cited from earlier work

HIV HR2 peptide, sequence (P03377 633-666 limits assumed): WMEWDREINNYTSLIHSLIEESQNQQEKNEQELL

C=C(C)[C@@H]1CC[C@]2(C(=O)O)CC[C@]3(C)[C@H](CC[C@@H]4[C@@]5(C)CC[C@H](O)C(C)(C)[C@@H]5CC[C@]43C)[C@@H]12 [BA, betulinic acid]
inhibitory activity against HIV infection (HIV [1]): show inhibitory activity

CC1(C)CC[C@]2(C(=O)O)CC[C@]3(C)C(=CC[C@@H]4[C@@]5(C)CC[C@H](O)C(C)(C)[C@@H]5CC[C@]43C)[C@@H]2C1 [OA, oleanolic acid]
inhibitory activity against HIV infection (HIV [1]): show inhibitory activity | inhibitory effect on influenza virus entry (influenza virus): significant inhibitory effect

C=C(C)[C@@H]1CC[C@]2(C(=O)NCCCCCCCC(=O)N(CCCC3(C)N=N3)CC(=O)O)CC[C@]3(C)C(CCC4[C@@]5(C)CC[C@H](O)C(C)(C)C5CC[C@]43C)C12 (stereo partly shown) [Y20]
binding to HIV-HR2 (in words) (HIV HR2 peptide): binds tightly | effect on HIV-HR1/HIV-HR2 affinity (in words) (HIV HR1-HR2 interaction): significantly reduced their affinity | inhibitory activity on the infectivity of HIV-1 pseudovirions (HIV-1 pseudovirions): exhibited inhibitory activity

C=C(C)[C@@H]1CC[C@]2(C(=O)O)CC[C@]3(C)[C@H](CC[C@@H]4[C@@]5(C)CC[C@H](OC(=O)CC(C)(C)C(=O)O)C(C)(C)[C@@H]5CC[C@]43C)[C@@H]12 [bevirimat]
efficacy in clinical trials (HIV [2]): promising efficacy
